Source: PubChem BioAssay AID1259411 (Chemical Carcinogenesis Research Information System (CCRIS), 2018)
Calls of active or inactive are those of the source. No rule for the calls is given here.

System: rodent carcinogenicity bioassays, tumor incidence
Experiment: CCRIS carcinogenicity studies
Details: Species: RAT
Procedure, shortened: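 Archive of carcinogenicity, mutagenicity, tumor promotion and tumor inhibition results drawn from journals, NCI reports and other sources, expert-reviewed; covers 1985-2011 and is no longer updated.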

Measured: carcinogen call

CCN(N=O)C(N)=O
active: Strain/Sex: F344/MALE, Route: GAVAGE, Dose: 0, 2.4 MG IN 0.2 ML ETHYL ACETATE/CORN OIL (1:1) 2/WK FOR 28 WK (TOTAL DOSE: 135 MG) (STUDY DURATION: 80 WK), Tumor Site: Type of Lesion: FORESTOMACH: CARCINOMA, LUNG: CARCINOMA OR ADENOMA active; positive | Strain/Sex: F344/MALE, Route: GAVAGE, Dose: 0, 6 MG/ML (TOTAL DOSE 0; 0.4 MMOL) IN 2 ML ETHYL ACETATE AND CORN OIL (1:2) 2/WK FOR 20 WK (STUDY DURATION: LIFETIME), Dose: 0, 6 MG/ML (TOTAL DOSE 0; 0.4 MMOL) IN 2 ML ETHYL ACETATE AND CORN OIL (1:2) 2/WK FOR 20 WK (STUDY DURATION: LIFETIME), Tumor Site: Type of Lesion: FORESTOMACH: SQUAMOUS CELL CARCINOMA, THYROID: C-CELL TUMOR, FOLLICULAR CELL TUMOR, LUNG: TUMOR, NERVOUS SYSTEM: TUMOR;, Tumor Site: Type of Lesion: FORESTOMACH: SQUAMOUS CELL CARCINOMA, THYROID: C-CELL TUMOR, FOLLICULAR CELL TUMOR, LUNG: TUMOR, NERVOUS SYSTEM: TUMOR active; positive | Strain/Sex: F344/MALE, Route: GAVAGE, Dose: 0, 6 MG/ML IN 0.2 ML ETHYL ACETATE AND CORN OIL 2/WK FOR 20 WK (STUDY DURATION: LIFESPAN), Tumor Site: Type of Lesion: FORESTOMACH: TUMOR, THYROID: C-CELL TUMOR, FOLLICULAR CELL TUMOR, LUNG: TUMOR, NERVOUS SYSTEM: TUMOR, COLON: TUMOR, PERI, Tumor Site: Type of Lesion: FORESTOMACH: TUMOR, THYROID: C-CELL TUMOR, FOLLICULAR CELL TUMOR, LUNG: TUMOR, NERVOUS SYSTEM: TUMOR, COLON: TUMOR, PERI active; positive | Strain/Sex: F344/MALE, Route: GAVAGE, Dose: 0, 12 MG/ML (TOTAL DOSE 0; 1.1 MMOL) IN 2 ML ETHYL ACETATE AND CORN OIL (1:2) 2/WK FOR 28 WK (STUDY DURATION: LIFETIME), Dose: 0, 12 MG/ML (TOTAL DOSE 0; 1.1 MMOL) IN 2 ML ETHYL ACETATE AND CORN OIL (1:2) 2/WK FOR 28 WK (STUDY DURATION: LIFETIME), Tumor Site: Type of Lesion: FORESTOMACH: SQUAMOUS CELL CARCINOMA, LUNG: TUMOR, ILEUM/JEJUNUM: TUMOR, BODY CAVITY: MESOTHELIOMA, ZYMBAL GLAND: TUMOR;, Tumor Site: Type of Lesion: FORESTOMACH: SQUAMOUS CELL CARCINOMA, LUNG: TUMOR, ILEUM/JEJUNUM: TUMOR, BODY CAVITY: MESOTHELIOMA, ZYMBAL GLAND: TUMOR active; positive | Strain/Sex: F344/MALE, Route: GAVAGE, Dose: 0, 12 MG/ML IN 0.2 ML ETHYL ACETATE AND CORN OIL 2/WK FOR 28 WK (STUDY DURATION: LIFESPAN), Tumor Site: Type of Lesion: FORESTOMACH: TUMOR, LUNG: TUMOR, ILEUM/JEJUNUM: TUMOR, PERITONEUM: MESOTHELIOMA, Tumor Site: Type of Lesion: FORESTOMACH: TUMOR, LUNG: TUMOR, ILEUM/JEJUNUM: TUMOR, PERITONEUM: MESOTHELIOMA active; positive | Strain/Sex: F344/MALE, Route: ORAL, Dose: 0, 0.3, 1, 3, 10 PPM IN DRINKING WATER FOR 104 WK (STUDY DURATION: 111 WK), Dose: 0, 0.3, 1, 3, 10 PPM IN DRINKING WATER FOR 104 WK (STUDY DURATION: 111 WK), Tumor Site: Type of Lesion: BRAIN: GLIOMA, MAMMARY GLAND: FIBROMA, LUNG: ADENOMA, LUNG: ADENOCARCINOMA, PERITONEUM: MESOTHELIOMA, Tumor Site: Type of Lesion: BRAIN: GLIOMA, MAMMARY GLAND: FIBROMA, LUNG: ADENOMA, LUNG: ADENOCARCINOMA, PERITONEUM: MESOTHELIOMA active; positive | Strain/Sex: SPRAGUE-DAWLEY/FEMALE, Route: IN UTERO, Dose: 0, 2.5, 10 MG/KG BW ONCE ADMINISTERED INTRAVENOUSLY ON DAY 15 OF GESTATION (STUDY DURATION: 104 WK), Dose: 0, 2.5, 10 MG/KG BW ONCE ADMINISTERED INTRAVENOUSLY ON DAY 15 OF GESTATION (STUDY DURATION: 104 WK), Tumor Site: Type of Lesion: BRAIN: GLIOMA active; positive | Strain/Sex: SPRAGUE-DAWLEY/MALE, Route: IN UTERO, Dose: 0, 2.5, 10 MG/KG BW ONCE ADMINISTERED INTRAVENOUSLY ON DAY 15 OF GESTATION (STUDY DURATION: 104 WK), Dose: 0, 2.5, 10 MG/KG BW ONCE ADMINISTERED INTRAVENOUSLY ON DAY 15 OF GESTATION (STUDY DURATION: 104 WK), Tumor Site: Type of Lesion: BRAIN: GLIOMA active; positive | Strain/Sex: SPRAGUE-DAWLEY, Route: INTRAVENOUSLY TO MATERNAL RATS AT 15 D OF GESTATION, PROGENY OBSERVED, Dose: 0, 2.5, 6.25, 10.0 MG/KG BW (STUDY DURATION: 24 MO), Dose: 0, 2.5, 6.25, 10.0 MG/KG BW (STUDY DURATION: 24 MO), Tumor Site: Type of Lesion: BRAIN: OLIGODENDRO-GLIOMA AND MIXED GLIOMA active; positive | Strain/Sex: SPRAGUE-DAWLEY, Route: INTRAVENOUSLY TO MOTHERS AT 15 D OF GESTATION, PROGENY OBSERVED, Dose: 0, 2.5, 6.25, 10.0 MG/KG BW (STUDY DURATION: 2 YRS), Dose: 0, 2.5, 6.25, 10.0 MG/KG BW (STUDY DURATION: 2 YRS), Tumor Site: Type of Lesion: CRANIAL NERVE: TUMORS active; positive | Strain/Sex: SPRAGUE-DAWLEY, Route: INTRAVENOUSLY TO MOTHERS AT 15 D OF GESTATION, PROGENY OBSERVED, Dose: 0, 2.5, 6.25, 10.0 MG/KG BW (STUDY DURATION: 2 YRS), Dose: 0, 2.5, 6.25, 10.0 MG/KG BW (STUDY DURATION: 2 YRS), Tumor Site: Type of Lesion: SPINAL NERVE: TUMORS active; positive | Strain/Sex: SPRAGUE-DAWLEY, Route: INTRAVENOUSLY TO MOTHERS AT 15 D OF GESTATION, PROGENY OBSERVED, Dose: 0, 2.5, 6.25, 10.0 MG/KG BW (STUDY DURATION: 24 MO), Dose: 0, 2.5, 6.25, 10.0 MG/KG BW (STUDY DURATION: 24 MO), Tumor Site: Type of Lesion: SPINAL CORD: TUMORS active; positive | Strain/Sex: WISTAR/MALE, FEMALE, Route: SUBCUTANEOUS, Dose: 0, 60 MG/KG BW ADMINISTERED TO 3 DAY OLD RATS (STUDY DURATION: 12 MO), Tumor Site: Type of Lesion: CENTRAL NERVOUS SYSTEM: GLIOMA active; positive | Strain/Sex: WISTAR/MALE, FEMALE, Route: TRANSPLACENTAL, Dose: 0, 60 MG/KG BW INTRAVENOUS DOSE ADMINISTERED TO LATE GESTATIONAL RATS AND OFFSPRING OBSERVED FOR 12 MO (STUDY DURATION:, Tumor Site: Type of Lesion: CENTRAL NERVOUS SYSTEM: GLIOMA active; positive | Strain/Sex: WISTAR/MALE, Route: INTRAPERITONEAL, Dose: 300 MG/KG BW 1/WK FOR 45 WK (STUDY DURATION: 45 WK), Tumor Site: Type of Lesion: INTEGUMENTARY SYSTEM (SUBCUTANEOUS TISSUE): SPINDLE CELL SARCOMA active; positive
